± gives the expanded uncertainty stated by the source.
Conditions: Liquid, Ebulliometric method (Recirculating still)

O [water]
vapor or sublimation pressure (311.15 K): 6.7 ± 0.11 kPa | vapor or sublimation pressure (324.55 K): 13.3 ± 0.35 kPa | vapor or sublimation pressure (361.85 K): 66.7 ± 2.8 kPa

CO [methanol]
vapor or sublimation pressure (282.55 K): 6.7 ± 0.1 kPa | vapor or sublimation pressure (293.75 K): 13.3 ± 0.27 kPa | vapor or sublimation pressure (301.45 K): 20 ± 0.41 kPa | vapor or sublimation pressure (307.35 K): 26.7 ± 0.56 kPa | vapor or sublimation pressure (311.85 K): 33.3 ± 0.7 kPa | vapor or sublimation pressure (315.75 K): 40 ± 0.86 kPa | vapor or sublimation pressure (319.05 K): 46.7 ± 1 kPa | vapor or sublimation pressure (322.05 K): 53.3 ± 1.2 kPa | vapor or sublimation pressure (324.65 K): 60 ± 1.4 kPa | vapor or sublimation pressure (327.25 K): 66.7 ± 1.6 kPa

CCO [ethanol]
vapor or sublimation pressure (295.25 K): 6.7 ± 0.1 kPa | vapor or sublimation pressure (307.45 K): 13.3 ± 0.27 kPa | vapor or sublimation pressure (315.05 K): 20 ± 0.41 kPa | vapor or sublimation pressure (321.05 K): 26.7 ± 0.57 kPa | vapor or sublimation pressure (325.65 K): 33.3 ± 0.7 kPa | vapor or sublimation pressure (329.55 K): 40 ± 0.86 kPa | vapor or sublimation pressure (332.85 K): 46.7 ± 1 kPa | vapor or sublimation pressure (335.95 K): 53.3 ± 1.2 kPa | vapor or sublimation pressure (338.65 K): 60 ± 1.4 kPa | vapor or sublimation pressure (341.15 K): 66.7 ± 1.6 kPa

OCC(O)CO [glycerol]
vapor or sublimation pressure (477.25 K): 6.7 ± 0.12 kPa | vapor or sublimation pressure (493.35 K): 13.3 ± 0.37 kPa | vapor or sublimation pressure (505.55 K): 20 ± 0.58 kPa | vapor or sublimation pressure (513.95 K): 26.7 ± 0.76 kPa | vapor or sublimation pressure (520.65 K): 33.3 ± 0.87 kPa

— the NIST ThermoML archive (doi:10.1016/j.jct.2012.09.032)
